Test results taken from patent publication US20230111310A1, “CARBOXYLIC ACID DERIVATIVE-SUBSTITUTED IMINO ARYL COMPOUND, PREPARATION METHOD THEREFOR, HERBICIDAL COMPOSITION AND USE THEREOF” (Qingdao Kingagroot Chemical Compound Co., Ltd., priority 2020, published 2023).

Legend:
Test in all cases: Weeding effect in post-emergence stage
Format in all cases: in vivo
Conditions in all cases: fresh weight control rate level
Abutilon theophrasti = test system: Abutilon theophrasti
Procedure, shortened: (§1)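 Weeds were treated post-emergence at 2-3 leaves with compound doses from 7.5 up to 500 g/ha, formulated in acetone–Tween 80 with methyl oleate synergist. Efficacy was assessed as growth control after 3 weeks.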

Alopecurus japonicus = test system: Alopecurus japonicus
Procedure, shortened: as §1

Digitaria sanguinalis = test system: Digitaria sanguinalis
Procedure, shortened: as §1

Eleusine indica = test system: Eleusine indica
Procedure, shortened: as §1

Setaria viridis = test system: Setaria viridis
Procedure, shortened: as §1

Echinochloa crusgalli = test system: Echinochloa crusgalli
Procedure, shortened: as §1

Row | SMILES | Weeding effect in post-emergence stage, Abutilon theophrasti (level) (Abutilon theophrasti; Dose 60 g/ha) | Weeding effect in post-emergence stage, Alopecurus japonicus (level) (Alopecurus japonicus; Dose 60 g/ha) | Weeding effect in post-emergence stage, Digitaria sanguinalis (level) (Digitaria sanguinalis; Dose 60 g/ha) | Weeding effect in post-emergence stage, Eleusine indica (level) (Eleusine indica; Dose 60 g/ha) | Weeding effect in post-emergence stage, Setaria viridis (level) (Setaria viridis; Dose 60 g/ha) | Weeding effect in post-emergence stage, Echinochloa crusgalli (level) (Echinochloa crusgalli; Dose 60 g/ha) | Weeding effect in post-emergence stage, Abutilon theophrasti (level) (Abutilon theophrasti; Dose 15 g/ha) | Weeding effect in post-emergence stage, Alopecurus japonicus (level) (Alopecurus japonicus; Dose 15 g/ha) | Weeding effect in post-emergence stage, Digitaria sanguinalis (level) (Digitaria sanguinalis; Dose 15 g/ha) | Weeding effect in post-emergence stage, Eleusine indica (level) (Eleusine indica; Dose 15 g/ha) | Weeding effect in post-emergence stage, Setaria viridis (level) (Setaria viridis; Dose 15 g/ha) | Weeding effect in post-emergence stage, Echinochloa crusgalli (level) (Echinochloa crusgalli; Dose 15 g/ha) | also measured
1 | COC(=O)[C@@H](C)O/N=C/c1cc(-n2c(=S)cc(C(F)(F)F)n(C)c2=S)c(F)cc1Cl [351(R)] | 5 (Level 5: growth control rate is above 85%) | 5 (Level 5: growth control rate is above 85%) | 5 (Level 5: growth control rate is above 85%) | 5 (Level 5: growth control rate is above 85%) | 5 (Level 5: growth control rate is above 85%) | 5 (Level 5: growth control rate is above 85%) | – | – | – | – | – | – | –
2 | COC(=O)[C@@H](C)O/N=C/c1cc(-n2c(=S)cc(C(F)(F)F)n(C)c2=O)c(F)cc1Br [388(R)] | – | – | – | – | – | – | 5 (Level 5: growth control rate is above 85%) | 5 (Level 5: growth control rate is above 85%) | 5 (Level 5: growth control rate is above 85%) | 5 (Level 5: growth control rate is above 85%) | 5 (Level 5: growth control rate is above 85%) | 5 (Level 5: growth control rate is above 85%) | –
3 | COC(=O)[C@@H](C)O/N=C/c1cc(-n2c(=S)cc(C(F)(F)F)n(C)c2=S)c(F)cc1C#N [390(R)] | – | – | – | – | – | – | 5 (Level 5: growth control rate is above 85%) | 5 (Level 5: growth control rate is above 85%) | 5 (Level 5: growth control rate is above 85%) | 5 (Level 5: growth control rate is above 85%) | 5 (Level 5: growth control rate is above 85%) | 5 (Level 5: growth control rate is above 85%) | –
4 | COC(=O)[C@@H](C)O/N=C/c1cc(-n2c(=S)cc(C(F)(F)F)n(C)c2=S)c(F)cc1Br [391(R)] | 5 (Level 5: growth control rate is above 85%) | 5 (Level 5: growth control rate is above 85%) | 5 (Level 5: growth control rate is above 85%) | 5 (Level 5: growth control rate is above 85%) | 5 (Level 5: growth control rate is above 85%) | 5 (Level 5: growth control rate is above 85%) | – | – | – | – | – | – | –
5 | COC(=O)[C@@H](C)O/N=C/c1cc(-n2c(=S)cc(C(F)(F)F)n(C)c2=S)c(F)cc1C(F)(F)F [392(R)] | 5 (Level 5: growth control rate is above 85%) | 5 (Level 5: growth control rate is above 85%) | 5 (Level 5: growth control rate is above 85%) | 5 (Level 5: growth control rate is above 85%) | 5 (Level 5: growth control rate is above 85%) | 5 (Level 5: growth control rate is above 85%) | – | – | – | – | – | – | –
6 | COC(=O)[C@@H](C)O/N=C/c1cc(-n2c(=S)cc(C(F)(F)F)n(C)c2=S)c(F)cc1C#N [393(R)] | 5 (Level 5: growth control rate is above 85%) | 5 (Level 5: growth control rate is above 85%) | 5 (Level 5: growth control rate is above 85%) | 5 (Level 5: growth control rate is above 85%) | 5 (Level 5: growth control rate is above 85%) | 5 (Level 5: growth control rate is above 85%) | – | – | – | – | – | – | –
7 | COC(=O)[C@@H](C)O/N=C/c1cc(-n2c(=O)cc(C(F)(F)F)n(C)c2=S)c(F)cc1Br [394(R)] | 5 (Level 5: growth control rate is above 85%) | 5 (Level 5: growth control rate is above 85%) | 5 (Level 5: growth control rate is above 85%) | 5 (Level 5: growth control rate is above 85%) | 5 (Level 5: growth control rate is above 85%) | 5 (Level 5: growth control rate is above 85%) | – | – | – | – | – | – | –
8 | COC(=O)[C@@H](C)O/N=C/c1cc(-n2c(=O)cc(C(F)(F)F)n(C)c2=S)c(F)cc1C(F)(F)F [395(R)] | 5 (Level 5: growth control rate is above 85%) | 5 (Level 5: growth control rate is above 85%) | 5 (Level 5: growth control rate is above 85%) | 5 (Level 5: growth control rate is above 85%) | 5 (Level 5: growth control rate is above 85%) | 5 (Level 5: growth control rate is above 85%) | – | – | – | – | – | – | –
9 | COC(=O)[C@@H](C)O/N=C/c1cc(-n2c(=O)cc(C(F)(F)F)n(C)c2=S)c(F)cc1C#N [396(R)] | 5 (Level 5: growth control rate is above 85%) | 5 (Level 5: growth control rate is above 85%) | 5 (Level 5: growth control rate is above 85%) | 5 (Level 5: growth control rate is above 85%) | 5 (Level 5: growth control rate is above 85%) | 5 (Level 5: growth control rate is above 85%) | – | – | – | – | – | – | –
10 | CCCSC(=O)[C@@H](C)O/N=C/c1cc(-n2c(=O)cc(C(F)(F)F)n(C)c2=O)c(F)cc1Cl [399(R)] | – | – | – | – | – | – | 5 (Level 5: growth control rate is above 85%) | 5 (Level 5: growth control rate is above 85%) | 5 (Level 5: growth control rate is above 85%) | 5 (Level 5: growth control rate is above 85%) | 5 (Level 5: growth control rate is above 85%) | 5 (Level 5: growth control rate is above 85%) | –
11 | CC(C)SC(=O)[C@@H](C)O/N=C/c1cc(-n2c(=O)cc(C(F)(F)F)n(C)c2=O)c(F)cc1Cl [400(R)] | – | – | – | – | – | – | 5 (Level 5: growth control rate is above 85%) | 5 (Level 5: growth control rate is above 85%) | 5 (Level 5: growth control rate is above 85%) | 5 (Level 5: growth control rate is above 85%) | 5 (Level 5: growth control rate is above 85%) | 5 (Level 5: growth control rate is above 85%) | –
12 | COC(=O)CSC(=O)[C@@H](C)O/N=C/c1cc(-n2c(=O)cc(C(F)(F)F)n(C)c2=O)c(F)cc1Cl [406(R)] | – | – | – | – | – | – | 5 (Level 5: growth control rate is above 85%) | 5 (Level 5: growth control rate is above 85%) | 5 (Level 5: growth control rate is above 85%) | 5 (Level 5: growth control rate is above 85%) | 5 (Level 5: growth control rate is above 85%) | 5 (Level 5: growth control rate is above 85%) | –
13 | C[C@@H](O/N=C/c1cc(-n2c(=O)cc(C(F)(F)F)n(C)c2=O)c(F)cc1Cl)C(=O)SCc1ccccc1 [409(R)] | – | – | – | – | – | – | – | – | – | – | – | – | Weeding effect in post-emergence stage, Abutilon theophrasti (level) (Abutilon theophrasti; Dose 30 g/ha): 5 (Level 5: growth control rate is above 85%); Weeding effect in post-emergence stage, Alopecurus japonicus (level) (Alopecurus japonicus; Dose 30 g/ha): 5 (Level 5: growth control rate is above 85%); Weeding effect in post-emergence stage, Digitaria sanguinalis (level) (Digitaria sanguinalis; Dose 30 g/ha): 5 (Level 5: growth control rate is above 85%); Weeding effect in post-emergence stage, Eleusine indica (level) (Eleusine indica; Dose 30 g/ha): 5 (Level 5: growth control rate is above 85%); Weeding effect in post-emergence stage, Setaria viridis (level) (Setaria viridis; Dose 30 g/ha): 5 (Level 5: growth control rate is above 85%); Weeding effect in post-emergence stage, Echinochloa crusgalli (level) (Echinochloa crusgalli; Dose 30 g/ha): 5 (Level 5: growth control rate is above 85%)
14 | COC(=O)CCNC(=O)[C@@H](C)O/N=C/c1cc(-n2c(=O)cc(C(F)(F)F)n(C)c2=O)c(F)cc1Cl [416(R)] | – | – | – | – | – | – | 5 (Level 5: growth control rate is above 85%) | 5 (Level 5: growth control rate is above 85%) | 5 (Level 5: growth control rate is above 85%) | 5 (Level 5: growth control rate is above 85%) | 5 (Level 5: growth control rate is above 85%) | 5 (Level 5: growth control rate is above 85%) | –
15 | CON(C)C(=O)[C@@H](C)O/N=C/c1cc(-n2c(=O)cc(C(F)(F)F)n(C)c2=O)c(F)cc1Cl [419(R)] | – | – | – | – | – | – | 5 (Level 5: growth control rate is above 85%) | 5 (Level 5: growth control rate is above 85%) | 5 (Level 5: growth control rate is above 85%) | 5 (Level 5: growth control rate is above 85%) | 5 (Level 5: growth control rate is above 85%) | 5 (Level 5: growth control rate is above 85%) | –
